SMILES strings stand for the structures.

For one assay, the target named is T1, LXRα (Homo sapiens, UniProt Q13133).
T1 construct: host or cells: CV-1 cells (fibroblasts)
T1 sequence (Q13133 1-447): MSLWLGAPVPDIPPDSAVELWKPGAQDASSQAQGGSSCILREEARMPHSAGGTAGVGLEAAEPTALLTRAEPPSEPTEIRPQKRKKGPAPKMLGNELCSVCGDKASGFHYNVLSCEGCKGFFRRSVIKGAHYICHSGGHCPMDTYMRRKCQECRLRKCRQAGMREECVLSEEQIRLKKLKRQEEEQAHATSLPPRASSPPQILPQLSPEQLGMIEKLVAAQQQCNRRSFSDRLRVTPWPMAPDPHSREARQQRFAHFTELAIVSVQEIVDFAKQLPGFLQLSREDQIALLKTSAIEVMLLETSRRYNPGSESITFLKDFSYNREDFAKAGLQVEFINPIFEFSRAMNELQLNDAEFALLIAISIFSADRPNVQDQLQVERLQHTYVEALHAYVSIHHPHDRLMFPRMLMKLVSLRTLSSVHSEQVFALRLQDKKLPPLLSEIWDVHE
As to conditions: Forman et al.; cited from earlier work.

A further assay concerns human myotubes. The experiment in a line: Palmitate uptake and lipid distribution: TAG synthesis from [1-14C]palmitic acid in myotubes. The format is cell-based. Here is the method: FIG. 3. 22-hydroxycholesterols influence TAG synthesis from palmitic acid differently than T0901317. Human myoblasts were allowed to differentiate for 2 days, and then exposed to vehicle (0.1% DMSO), 1 μM T0901317, or 10 μM 22-S-hydroxycholesterol (22-S-HC) for 4 days. Differentiated myotubes were then incubated with [1-^14C]PA (0.5 μCi/ml, 0.1 mM) for 4 h before triacylglycerol (TAG) levels were determined. Results present means±SEM (n=4; independent muscle cell donors). *p<0.05 vs control, **p<0.05 vs all other treatments.
Human skeletal muscle cell cultures. A cell bank of satellite cells was established from muscle biopsy samples of the M. vastus lateralis of 6 healthy volunteers, age 25.7 years (±1.4), with BMI 21.6 (±1.0) and fasting glucose and insulin within normal range. The biopsies were obtained with informed consent and by approval of the National Committee for Research Ethics, Oslo, Norway. Muscle cell cultures free of fibroblasts were established by the method of Henry et al. (Diabetes, 44, 936-946, 1995), with minor modifications. Briefly, muscle tissue was dissected in Ham's F-10 media at 4° C., dissociated by three successive treatments with 0.05% trypsin/EDTA, and satellite cells were re-suspended in SkGM with 2% FCS and no added insulin. The cells were grown on culture wells coated with ECM gel (Apmis, 109, 726-734, 2001). At about 80% confluence, fusion of myoblasts into multinucleated myotubes was achieved by growth in DMEM with 2% FCS. All cells used were at passage 4 to 6. […]
Palmitate uptake and lipid distribution. […] The radioactivity in the cell fraction (20 μl) was quantified by liquid scintillation (Packard Tri-Carb 1900 TR) (Gaster et al, Diabetes, 53, 542-548, 2004). The protein content of each sample was determined (Bradford, Anal. Biochem., 72, 248-254, 1976), and triacylglycerol (TAG) was extracted (Gaster et al, supra). Briefly, the homogenized cell fraction (220 μl) was extracted, lipids separated by thin-layer chromatography and the radioactivity was quantified by liquid scintillation.

A further assay has as its system LXR target genes. Briefly: Gene expression of LXR target genes in myotubes by Real-Time RT-PCR. As to conditions: after 22-S-HC treatment; data not shown. In kind it is cell-based, human. In general terms: Quantitative PCR measures a nucleic acid by following its amplification.
For a further assay, the system named is MyoD and myogenin. The experiment in a line: Expression of MyoD and myogenin and differentiation of myoblasts into myotubes. In kind it is cell-based, human. Here is the method: FIG. 1. Expression of MyoD (A) and myogenin (B) during differentiation of myoblasts. During the differentiation process, cells were harvested on day-2 until day 8. Some cell cultures were treated with ±1 μM T0901317 from day 2 until day 6. Equal amount of total RNA from each donor (n=4) were pooled, reversely transcribed and analyzed by Real-Time RT-PCR. Expression of MyoD and myogenin was normalized to GAPDH. RNA isolation and analysis of gene expression by RT-PCR. Myotubes were washed, trypsinized and pelleted before total RNA was isolated by RNeasy Mini kit (Qiagen Sciences, Oslo, Norway) or Agilent Total RNA Mini kit (Matrix, Oslo, Norway) according to the suppliers total RNA isolation protocol. […] DNA expression was determined by SYBR® Green (Applied Biosystems), and primers [36B4 (Acc#M17885), ACSL1 (Acc#NM-001995), ABCA1 (Acc#AF165281), CD36 (Acc#L06850), FAS (Acc#U26644), GAPDH (Acc#J104038/M33197, GLUT4 (Acc#M20747), LXRα (Acc#U22662), LXR (Acc#U07132), Myogenin (Acc#X17651), MyoD (Acc#BC064493), PPARα (Acc#L02932), PPARδ (Acc#BC002715), PPARγ (Acc#L40904), SCD-1 (Acc#AB032261), SREBP1c (Acc#U00968)], GLUT1, (Acc#03195), GLUT3 ([…]) were designed using Primer Express® (Applied Biosystems). Each target gene was quantified in triplicates and carried out in a 25 μl reaction volume according to the suppliers protocol. […]

Consider `CC(C)CC[C@@H](O)[C@@H](C)[C@H]1CC[C@H]2[C@@H]3CC=C4C[C@@H](O)CC[C@]4(C)[C@H]3CC[C@]12C` [Example 22-R-HC, 22-R-hydroxycholesterol], for which, on LXRα, the “regulation of LXRα in fibroblasts (CV-1 cells)” value is reported as “positively regulates”.

Consider `CC(C)CC[C@H](O)[C@@H](C)[C@H]1CC[C@H]2[C@@H]3CC=C4C[C@@H](O)CC[C@]4(C)[C@H]3CC[C@]12C` [Example 22-S-HC, 22-S-hydroxycholesterol], for which, in the assay on human myotubes (10 μM for 4 days vs 1 μM T0901317), the “synthesis of TAG compared to T0901317 treatment” value was “significantly reduced”. Further, in the assay on human myotubes (10 μM for 4 days, compared to control myotubes), the “reduction in incorporation of labeled palmitate into TAG” value is given as 50%. The “FAS mRNA expression observed on a micro fluid card” value in the assay on LXR target genes is “significantly reduced”. Also, the “regulation of LXRα in fibroblasts (CV-1 cells)” value at LXRα is “inactive”.

In the case of `O=S(=O)(c1ccccc1)N(CC(F)(F)F)c1ccc(C(O)(C(F)(F)F)C(F)(F)F)cc1` [Example T0901317], the “TAG synthesis from labeled palmitate” value with human myotubes (1 μM T0901317 for 4 days, [1-14C]PA 4 h, vs control) is reported as “increased”. In addition, the “expression levels of MyoD and myogenin” value in the assay on MyoD and myogenin (1 μM from day 2 until day 6) is “did not seem to interfere”. In the assay on MyoD and myogenin (with and without LXR agonist treatment, data not shown), the “differentiation of myoblasts into multinucleated myotubes by light microscopy” value is reported as “normal differentiation”.
